Results as given in publication PMC6044894 (ACS Omega, 2017).
Numbered stars: 1 amine (or outer) side, 2 acyl side, 3 side chain; on linkers, the order of the positions; unused ones are H or OH. Bridge positions count the residues as written; N and C are the ends. Peptide text beside a SMILES is read from it. I, II: the chains in the order shown. * marks the point of attachment. Suberoyl = O=C(CCCCCCC(=O)[*:2])[*:1]; Octanoyl = CCCCCCCC(=O)*

Columns and labels:
Y4R [1] = target: T1, Y4R (Homo sapiens, UniProt P50391); test: Aequorin calcium mobilization assay on CHO-hY4-Gqi5-mtAEQ cells; format: cell-based; conditions: for aequorin assay intrinsic activity α: relative to 1 μM hPP (α = 1.0)
T1 sequence (P50391 whole entry): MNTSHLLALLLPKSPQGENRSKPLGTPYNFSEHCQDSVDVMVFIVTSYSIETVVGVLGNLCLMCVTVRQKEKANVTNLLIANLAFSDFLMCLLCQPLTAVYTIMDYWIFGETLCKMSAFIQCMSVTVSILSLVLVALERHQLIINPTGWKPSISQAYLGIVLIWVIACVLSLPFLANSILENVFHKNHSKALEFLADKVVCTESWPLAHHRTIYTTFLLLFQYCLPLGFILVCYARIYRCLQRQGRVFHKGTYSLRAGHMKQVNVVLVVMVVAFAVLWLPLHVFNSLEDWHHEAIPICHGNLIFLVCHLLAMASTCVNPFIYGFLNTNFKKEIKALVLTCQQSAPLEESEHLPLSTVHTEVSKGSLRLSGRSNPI

Y1R = target: T2, Y1R (Homo sapiens, UniProt P25929); test: Radioligand competition binding assay at Y1R with 46 using MCF-7-hY1 cells
T2 sequence (P25929 1-384): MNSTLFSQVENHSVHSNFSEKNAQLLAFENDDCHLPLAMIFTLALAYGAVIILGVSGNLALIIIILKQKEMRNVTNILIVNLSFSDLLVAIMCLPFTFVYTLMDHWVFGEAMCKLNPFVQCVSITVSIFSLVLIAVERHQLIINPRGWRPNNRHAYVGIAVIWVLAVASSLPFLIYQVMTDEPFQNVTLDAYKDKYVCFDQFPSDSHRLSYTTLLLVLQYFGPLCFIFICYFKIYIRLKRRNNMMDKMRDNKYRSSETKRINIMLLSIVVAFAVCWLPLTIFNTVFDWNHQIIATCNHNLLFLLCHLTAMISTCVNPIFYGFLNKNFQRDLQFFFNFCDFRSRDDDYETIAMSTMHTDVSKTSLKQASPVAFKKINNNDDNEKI

Y2R = target: T3, Y2R (Homo sapiens, UniProt P49146); format: binding
T3 sequence (P49146 1-381): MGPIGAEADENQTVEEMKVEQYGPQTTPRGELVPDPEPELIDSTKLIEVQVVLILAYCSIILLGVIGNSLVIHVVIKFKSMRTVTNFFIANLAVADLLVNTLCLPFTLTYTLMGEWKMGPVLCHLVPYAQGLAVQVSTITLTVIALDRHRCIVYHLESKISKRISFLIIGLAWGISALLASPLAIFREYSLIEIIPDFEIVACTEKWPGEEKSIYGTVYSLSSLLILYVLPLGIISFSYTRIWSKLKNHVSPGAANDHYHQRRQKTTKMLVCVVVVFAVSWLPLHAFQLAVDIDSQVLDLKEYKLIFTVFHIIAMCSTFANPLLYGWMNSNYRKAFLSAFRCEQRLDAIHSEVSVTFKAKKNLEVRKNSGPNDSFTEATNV

Y4R [2] = target: T1, Y4R; test: biochemical; format: binding
Y5R = target: T4, Y5R (Homo sapiens, UniProt Q15761); format: binding
T4 sequence (Q15761 1-445): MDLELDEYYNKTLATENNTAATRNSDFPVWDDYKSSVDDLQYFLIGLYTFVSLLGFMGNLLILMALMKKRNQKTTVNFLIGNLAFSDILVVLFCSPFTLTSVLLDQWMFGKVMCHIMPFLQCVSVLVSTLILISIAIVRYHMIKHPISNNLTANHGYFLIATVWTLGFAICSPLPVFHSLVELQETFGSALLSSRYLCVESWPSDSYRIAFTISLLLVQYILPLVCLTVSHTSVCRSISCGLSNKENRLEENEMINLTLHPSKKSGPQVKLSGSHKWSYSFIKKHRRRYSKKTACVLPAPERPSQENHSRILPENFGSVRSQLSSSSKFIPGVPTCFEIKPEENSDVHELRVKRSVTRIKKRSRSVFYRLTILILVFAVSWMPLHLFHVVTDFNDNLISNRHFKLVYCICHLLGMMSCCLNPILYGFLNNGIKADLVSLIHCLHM

Y4R [3] = target: T1, Y4R; test: β-Arrestin 1 recruitment assay on HEK293T-ARRB1-Y4R cells; format: cell-based; conditions: for β-arrestin 1 assay intrinsic activity α: relative to 1 μM hPP (α = 1.0)
Y4R [4] = target: T1, Y4R; test: β-Arrestin 2 recruitment assay on HEK293T-ARRB2-Y4R cells; format: cell-based; conditions: for β-arrestin 2 assay intrinsic activity α: relative to 1 μM hPP (α = 1.0)

Compound	aequorin assay intrinsic activity α (Y4R [1])	Ki (Y1R) [nM]	Ki (Y2R) [µM]	Ki (Y4R [2]) [nM]	increase in Y4R affinity compared to parent compound 3 (Y4R [2]; ratio of Ki values)	Ki (Y5R) [µM]	EC50 (Y4R [1]) [nM]	EC50 (Y4R [3]) [nM]	β-arrestin 1 assay intrinsic activity α (Y4R [3])	EC50 (Y4R [4]) [nM]	β-arrestin 2 assay intrinsic activity α (Y4R [4])
CC(C)C[C@H](NC(=O)[C@H](CCCNC(=N)N)NC(=O)[C@H](Cc1ccc(O)cc1)NC(=O)CCCCCCC(=O)N[C@@H](Cc1ccc(O)cc1)C(=O)N[C@@H](CCCNC(=N)N)C(=O)N[C@@H](CC(C)C)C(=O)N[C@@H](CCCNC(=N)N)C(=O)N[C@@H](Cc1ccc(O)cc1)C(N)=O)C(=O)N[C@@H](CCCNC(=N)N)C(=O)N[C@@H](Cc1ccc(O)cc1)C(N)=O [Compound 2, octanedioyl-bis(Tyr-Arg-Leu-Arg-Tyr-amide), reference compound] (I: YRLRY-NH2 / II: YRLRY-NH2; linker I:N-II:N via Suberoyl)	0.73	–	–	–	–	–	–	–	–	–	–
CCCCCCCC(=O)N[C@@H](Cc1ccc(O)cc1)C(=O)N[C@@H](CCCNC(=N)N)C(=O)N[C@@H](CC(C)C)C(=O)N[C@@H](CCCNC(=N)N)C(=O)N[C@@H](Cc1ccc(O)cc1)C(N)=O [Compound 33, Octanoyl-Tyr-Arg-Leu-Arg-Tyr-amide Bis(hydrotrifluoroacetate)] (Octanoyl-YRLRY-NH2)	0.44	589 ± 120	> 5	56.9 ± 5.3	almost six	3.44 ± 0.21	2050 ± 84	2200 ± 130	0.56	1790 ± 1070	0.61
CC(=O)N[C@@H](CCCNC(=N)N)C(=O)N[C@@H](Cc1ccc(O)cc1)C(=O)N[C@@H](CCCNC(=N)N)C(=O)N[C@@H](CC(C)C)C(=O)N[C@@H](CCCNC(=N)N)C(=O)N[C@@H](Cc1ccc(O)cc1)C(N)=O [Compound 36, Ac-Arg-Tyr-Arg-Leu-Arg-Tyr-amide Tris(hydrotrifluoroacetate)]	0.78	1180 ± 380	> 5	–	–	> 5	303 ± 68	187 ± 40	0.51	140 ± 45	0.54
Ac-YRLRY-NH2 [Compound 3, Ac-Tyr-Arg-Leu-Arg-Tyr-amide, reference compound]	–	> 5000	> 5	–	–	> 5	–	–	–	–	–
